“Also recorded” adds a separate entry of the source. Counter-ions that a name gives are not always drawn.
Experiments:
[1] = test system: primary cortical neurons; assay: Secondary screening: TUNEL apoptosis assay after 2 hours OGD, compounds given at or after reoxygenation; type: cell-based, Spraque-Dawley rat; conditions: for dose providing maximum neuroprotection against OGD-induced apoptosis (optimal dose): at reoxygenation after 2 hours OGD; for neuroprotection when administered after reoxygenation onset (time course): optimal dose given 0, 15, 30, 60 minutes after reoxygenation onset after 2 hours OGD
Procedure: Cortical neurons were obtained from Spraque-Dawley rat embryos at day 18 of gestation. Cortices were triturated and pre-plated 4 times for 30 minutes in 150 mm vacuum-plasma treated dishes (BD). During these pre-plating steps, primarily non-neuronal cells adhere to the dish, thereby enriching the neuronal population. Enriched neurons were plated in Neurobasal medium containing 2% fetal bovine serum (FBS), 25 μM Glutamax, and penicillin-streptomycin (Gibco) in poly-D-lysine-coated white clear-bottomed 96-well plates or 24-well plates (Becton-Dickinson) at a density of 50×10^3/cm^2. Twenty-four hours later (1 day in vitro, 1 DIV), 50% of the medium was replaced with Neurobasal medium, 2% B27 (Gibco), and 4 μM cytosine arabinoside (AraC) (2 μM AraC final). At 5 DIV, 50% of the medium was replaced with Neurobasal, 2% B27. At 7 DIV, cortical cultures were 98% neurons as assessed by microtubule-associated protein 2 (MAP2) antibody labeling and flow cytometry analysis (data not shown). In vitro experiments were performed in quadruplicate and results are shown as means with standard deviation.
Neuroprotection by candidate compounds was assayed by measurement of apoptosis using terminal deoxynucleotidyl transferase dUTP nick end labeling (TUNEL) reagents as described previously.^6 At 7 DIV, primary neurons grown on poly-D-lysine-coated 22 mm-diameter cover slips in 24-well plates underwent 2 hours of OGD and were treated with a range of doses of each compound at reoxygenation. Compounds providing greater than 2-fold protection over vehicle were then administered at the optimal dose after OGD at intervals of 0, 15, 30, and 60 minutes post-reoxygenation.

[2] = test system: spontaneously hypertensive rats (SHR); assay: Middle cerebral artery occlusion (MCAO) model of transient focal ischemia; type: in vivo, rat
Text: All animal procedures were approved by the University of New Mexico Institutional Animal Care and Use Committee and were in compliance with federal guidelines. Male spontaneously hypertensive rats (SHR) weighing 290-300 g were obtained from Charles River Laboratories. Animals were anesthetized with 2% isoflurane inhalant during all surgical procedures. The right common carotid artery (CCA) was ligated approximately 6 mm caudal to the bifurcation of the external and internal carotid arteries. With a vascular clamp in place on the CCA immediately caudal to the bifurcation, an incision was made in the CCA 5 mm caudal to the clamp and a nylon suture (Doccol Corporation) 30 mm in length with a 2-3 mm silicone coated tip (0.39 mm diameter) was advanced into the CCA lumen and secured in place with 2 4-0 silk sutures spaced 3 mm apart and tied loosely around the CCA caudal to the clamp. The clamp was removed and the suture advanced into the internal carotid artery until resistance was felt. In this position, the filament occludes the MCA origin and MCA territory becomes ischemic. The suture was secured with the 2 silk sutures around the CCA. […] Edema-corrected infarct volume was calculated by subtracting the area of non-infarcted tissue in the ipsilateral hemisphere from the total volume of the contralateral hemisphere. Infarct volume was quantified using Image J software.

[3] = test system: primary cortical neurons; assay: High-throughput oxygen-glucose deprivation (OGD) screen of the Prestwick Chemical Library, CytotoxGlo dead/live cell protease ratio; type: cell-based, Spraque-Dawley rat; conditions: pretreatment, 10 μM, pure cortical neurons
Procedure: The Prestwick Chemical Library (Prestwick Chemical) was screened for neuroprotection in OGD by pre-treating 7 DIV cortical neurons in 96-well dishes with 10 μM compounds for 30 minutes. All liquid handling was automated and performed by a Beckman Coulter Biomek NX multichannel pipettor. The pretreatment medium was transferred to a clean plate for storage and was kept at 37° C. in a 5% CO2 environment during the OGD exposure. After pretreatment, cells were washed 3 times with deoxygenated glucose-free Hank's buffered saline solution (HBSS), pH 7.4, to remove glucose and oxygen and were covered with 100 μl HBSS. HBSS was deoxygenated in a gas washing bottle with 60 liters of 95% nitrogen, 5% CO2 per 250 ml HBSS. HBSS was maintained at 37° C. during deoxygenation in a water bath. Compounds were added to wells and plates were sealed with sealing tape and placed in a 37° C. incubator for 2 hours (OGD). After 2 hours, HBSS was removed and pretreatment medium was returned to the wells. After 24 hours, neuronal death was quantified using CytotoxGlo reagents (Promega) and a Victor^3 V luminometer (Perkin Elmer) according to the manufacturer's instructions. Eight wells per dish were used as DMSO-treated vehicle-only controls. […]

| SMILES | dose providing maximum neuroprotection against OGD-induced apoptosis (optimal dose) ([1]; 0.01 to 100 nM tested) | neuroprotection when administered after reoxygenation onset (time course) [1] | neuroprotection in the high-throughput screen (in words) [3] | also measured |
| --- | --- | --- | --- | --- |
| CCNCC(O)c1cccc(O)c1 (centres unmarked) [Etilefrine hydrochloride] | 1 nM |  |  | neuroprotection when administered after reoxygenation onset (time course) ([1]; listed as etilifrine, hydrochloride): significantly decreased; also recorded: significant decrease in neuroprotection |
| C[C@H](COc1ccccc1)N[C@H](C)[C@H](O)c1ccc(O)cc1 (racemic) [Isoxsuprine hydrochloride, 4-{1-hydroxy-2-[(1-methyl-2-phenoxyethyl)amino]propyl}phenol] | 1 nM | no loss of efficacy; also recorded: no decrease in neuroprotection; also recorded: no loss of neuroprotection |  | total edema-corrected infarct volume ([2]; 1 mg/kg IV at onset of reperfusion after 90-minute MCAO, 24 hours reperfusion, vehicle 279±25, n=7): 137±18 mm^3; reduction of infarct volume versus vehicle ([2]; single dose 1 mg/kg IV at reperfusion): reduced infarct volume by half |
| CN1CCN2c3ccccc3Cc3ccccc3C2C1 (centres unmarked) [Mianserine hydrochloride] |  |  | highly protective | neuroprotection in the secondary screen (in words) ([1]; given at reoxygenation): ineffective |
| CC(C)(C)NCC(O)c1cc(Cl)c(N)c(Cl)c1 (centres unmarked) [clenbuterol] |  |  | not identified as a neuroprotective compound |  |
| NC(=O)OCC(O)COc1ccc(Cl)cc1 (centres unmarked) [Chlorphenesin carbamate] |  | no decrease in neuroprotection; also recorded: no loss of neuroprotection |  | dose providing maximum neuroprotection against OGD-induced apoptosis (optimal dose) ([1]; 100 to 300 μM tested): 200000 nM |

Source: patent publication US10220008B2, “Treatment and prevention of stroke and other neurological disorders” (STC.UNM, priority 2013, dated 2019)
